Common to all, as to assay type: biochemical
For test [1], the target named is T1, recombinant human MAO-A (monoamine oxidase-A) (Homo sapiens, UniProt P21397).
T1 construct: purchased Sigma-Aldrich
T1 sequence (P21397 1-527): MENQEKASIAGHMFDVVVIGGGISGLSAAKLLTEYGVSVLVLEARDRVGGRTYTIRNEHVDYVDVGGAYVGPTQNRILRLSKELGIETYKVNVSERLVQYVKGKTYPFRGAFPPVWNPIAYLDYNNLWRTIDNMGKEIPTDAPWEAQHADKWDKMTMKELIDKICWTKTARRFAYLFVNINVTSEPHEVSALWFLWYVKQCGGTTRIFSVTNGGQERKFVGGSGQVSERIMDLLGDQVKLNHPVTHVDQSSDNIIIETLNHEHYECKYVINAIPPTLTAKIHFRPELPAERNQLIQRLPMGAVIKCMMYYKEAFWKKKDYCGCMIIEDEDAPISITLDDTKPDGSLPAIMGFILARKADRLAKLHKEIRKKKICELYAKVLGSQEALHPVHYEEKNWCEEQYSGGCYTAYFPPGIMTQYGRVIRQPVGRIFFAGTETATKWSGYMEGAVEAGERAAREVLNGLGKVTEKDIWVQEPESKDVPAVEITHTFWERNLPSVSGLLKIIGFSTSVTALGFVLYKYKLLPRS
Put plainly: Activity on recombinant human MAO-A, Amplex Red method, 0.5 mM tyramine substrate. To be noted: read-out: Inhibitory Activity (IC50, nM) MAO-A. In a few lines:
(§1)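 Fluorescence (544/590 nm) of resorufin formed from Amplex Red by HRP and enzyme-generated H2O2 was followed over 1-2 h. Substrates were 0.5 mM tyramine for MAO-A and 1 mM benzylamine for MAO-B; compounds were preincubated with enzyme for 30 min at 37° C. IC50 came from four-parameter logistic fitting of signal-rate inhibition.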

For another test, the target named is T2, recombinant human VAP-1 (Homo sapiens, UniProt Q16853).
T2 construct: purchased R&D systems
T2 sequence (Q16853 1-763): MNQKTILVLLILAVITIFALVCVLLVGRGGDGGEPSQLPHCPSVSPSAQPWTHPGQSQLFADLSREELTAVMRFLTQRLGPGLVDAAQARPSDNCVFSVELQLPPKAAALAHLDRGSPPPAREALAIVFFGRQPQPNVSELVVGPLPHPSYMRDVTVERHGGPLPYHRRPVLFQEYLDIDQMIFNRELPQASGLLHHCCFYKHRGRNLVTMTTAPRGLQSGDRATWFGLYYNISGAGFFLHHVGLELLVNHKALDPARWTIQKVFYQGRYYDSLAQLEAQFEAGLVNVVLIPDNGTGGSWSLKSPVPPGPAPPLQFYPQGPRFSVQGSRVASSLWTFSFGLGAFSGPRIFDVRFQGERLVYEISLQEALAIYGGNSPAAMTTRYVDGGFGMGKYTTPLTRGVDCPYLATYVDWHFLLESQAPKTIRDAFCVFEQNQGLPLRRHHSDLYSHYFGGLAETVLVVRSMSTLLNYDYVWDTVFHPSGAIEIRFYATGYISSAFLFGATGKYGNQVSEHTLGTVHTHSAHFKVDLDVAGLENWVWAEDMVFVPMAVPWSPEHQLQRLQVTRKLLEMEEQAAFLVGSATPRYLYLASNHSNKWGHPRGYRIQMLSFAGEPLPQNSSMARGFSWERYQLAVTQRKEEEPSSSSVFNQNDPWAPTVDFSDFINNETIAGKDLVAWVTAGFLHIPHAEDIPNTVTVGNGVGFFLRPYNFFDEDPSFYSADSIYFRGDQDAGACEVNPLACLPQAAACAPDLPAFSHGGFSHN
Put plainly: Activity on recombinant human VAP-1, Amplex Red HRP-coupled hydrogen peroxide assay, benzylamine substrate. As to conditions: recombinant human VAP-1, benzylamine substrate, read-out: Inhibitory Activity (IC50, nM) human VAP-1. A digest of the protocol: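 Fluorescence of resorufin formed from H2O2 (ex 544 nm, em 590 nm) was tracked for 1-2 h after adding 1 mM benzylamine, 200 uM Amplex Red and 1 U/mL HRP to enzyme pretreated with compound for 30 min at 37 °C. IC50 values derive from four-variable logistic fits.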

The target in test [2] is T3, recombinant human DAO (diamine oxidase) (Homo sapiens, UniProt P19801).
T3 construct: purchased R&D systems
T3 sequence (P19801 20-751): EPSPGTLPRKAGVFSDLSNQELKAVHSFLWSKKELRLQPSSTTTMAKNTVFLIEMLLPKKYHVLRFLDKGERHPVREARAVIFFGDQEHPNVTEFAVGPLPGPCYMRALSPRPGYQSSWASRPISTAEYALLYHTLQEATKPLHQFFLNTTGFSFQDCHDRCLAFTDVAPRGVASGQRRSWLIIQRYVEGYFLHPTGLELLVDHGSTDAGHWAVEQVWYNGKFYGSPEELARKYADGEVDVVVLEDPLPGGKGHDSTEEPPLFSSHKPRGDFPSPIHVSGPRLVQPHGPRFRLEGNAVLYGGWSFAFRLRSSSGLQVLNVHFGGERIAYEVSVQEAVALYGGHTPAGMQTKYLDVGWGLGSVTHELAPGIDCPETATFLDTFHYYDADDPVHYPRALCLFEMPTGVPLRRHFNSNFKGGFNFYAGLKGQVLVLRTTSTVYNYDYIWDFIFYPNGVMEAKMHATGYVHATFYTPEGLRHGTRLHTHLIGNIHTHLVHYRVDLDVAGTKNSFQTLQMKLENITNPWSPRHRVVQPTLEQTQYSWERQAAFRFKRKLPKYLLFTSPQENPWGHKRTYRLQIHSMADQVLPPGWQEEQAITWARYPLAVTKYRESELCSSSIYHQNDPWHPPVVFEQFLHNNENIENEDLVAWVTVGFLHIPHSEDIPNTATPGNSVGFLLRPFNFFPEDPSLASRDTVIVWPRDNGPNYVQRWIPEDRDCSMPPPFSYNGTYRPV
Put plainly: Activity on recombinant human DAO, Amplex Red method, 1 mM putrescine substrate. A digest of the protocol: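 Inhibition of recombinant human DAO (diamine oxidase, R&D systems) was assessed with the Amplex Red Hydrogen Peroxide Assay Kit. Hydrogen peroxide produced from 1 mM putrescine was detected through an HRP-coupled reaction that converts Amplex Red into fluorescent resorufin, read at 544 nm excitation and 590 nm emission. IC50 values came from four-parameter logistic fits in GraphPad Prism.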

For test [3], the target named is T4, recombinant human MAO-B (monoamine oxidase-B) (Homo sapiens, UniProt P27338).
T4 construct: purchased Sigma-Aldrich
T4 sequence (P27338 1-520): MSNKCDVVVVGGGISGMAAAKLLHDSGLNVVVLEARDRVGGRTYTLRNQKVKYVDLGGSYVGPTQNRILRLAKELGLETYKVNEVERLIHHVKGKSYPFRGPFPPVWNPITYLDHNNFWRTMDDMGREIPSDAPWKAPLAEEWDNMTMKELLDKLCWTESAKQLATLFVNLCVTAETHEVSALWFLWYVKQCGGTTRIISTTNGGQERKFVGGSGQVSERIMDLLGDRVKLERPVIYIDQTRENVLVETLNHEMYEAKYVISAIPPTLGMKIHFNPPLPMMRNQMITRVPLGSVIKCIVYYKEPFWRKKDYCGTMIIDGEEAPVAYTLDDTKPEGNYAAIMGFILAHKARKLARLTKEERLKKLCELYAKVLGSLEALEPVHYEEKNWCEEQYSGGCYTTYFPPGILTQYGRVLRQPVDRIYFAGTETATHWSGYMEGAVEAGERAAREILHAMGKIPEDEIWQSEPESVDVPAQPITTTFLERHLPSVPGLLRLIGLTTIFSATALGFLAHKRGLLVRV
Put plainly: Activity on recombinant human MAO-B, Amplex Red method, 1 mM benzylamine substrate. As to conditions: read-out: Inhibitory Activity (IC50, nM) MAO-B. A digest of the protocol:
as §1

The mark [4] stands for this setting: recombinant human DAO, 1 mM putrescine, * = between 10 and 100 nM, ** = between 300 and 1000 nM, read-out: Inhibitory Activity (IC50, nM) DAO.

Results on eleven compounds are retold here after patent US11492335B2, “Aryl or heteroaryl triazolone derivatives or salts thereof, or pharmaceutical compositions comprising the same” (YUHAN CORPORATION, priority 2018, dated 2022).

Where a name gives a salt, the structure may show the parent alone. Read-outs that look alike come from different tables or passages of the source.

Regarding `NC/C(=C\F)Cn1ncn(-c2c(F)cc(Br)cc2F)c1=O` [Example 22, 2-[(2E)-2-(aminomethyl)-3-fluoroprop-2-en-1-yl]-4-(4-bromo-2,6-difluorophenyl)-2,4-dihydro-3H-1,2,4-triazol-3-one hydrochloride], the IC50 (commonly the concentration that gives 50% inhibition) in test [1] (0.5 mM tyramine) was 12000 nM; at recombinant human VAP-1 (30 min preincubation at 37° C.) it was 1.4 nM; in test [2] (setting [4]), 420 nM; in test [3] (1 mM benzylamine) it was 146 nM.
The corresponding values for `NC/C(=C\F)Cn1ncn(-c2cccc(-c3ccc(-c4nnc[nH]4)cc3)c2)c1=O` [Example 59, 2-[(2E)-2-(aminomethyl)-3-fluoroprop-2-en-1-yl]-4-[4′-(4H-1,2,4-triazol-3-yl)biphenyl-3-yl]-2,4-dihydro-3H-1,2,4-triazol-3-one] are more than 100000 nM, 0.62 nM, less than 100 nM and more than 10000 nM.
As to `NC/C(=C\F)Cn1ncn(-c2cccc(-c3ccc4sc(N)nc4c3)c2)c1=O` [Example 99, 4-[3-(2-amino-1,3-benzothiazol-5-yl)phenyl]-2-[(2E)-2-(aminomethyl)-3-fluoroprop-2-en-1-yl]-2,4-dihydro-3H-1,2,4-triazol-3-one hydrochloride], the IC50 in test [1] (0.5 mM tyramine) was more than 100000 nM; at recombinant human VAP-1 (30 min preincubation at 37° C.), 0.82 nM; in test [2] (setting [4]), less than 100 nM; in test [3] (1 mM benzylamine), 6420 nM.
The corresponding values for `CC(=O)Nc1cc(-c2cnc(-n3cnn(C/C(=C/F)CN)c3=O)c(C)c2)ccn1` [Example 147, (E)-N-(6-(1-(2-(aminomethyl)-3-fluoroallyl)-5-oxo-1,5-dihydro-4H-1,2,4-triazol-4-yl)-5-methyl-[3,4′-bipyridin]-2′-yl)acetamide hydrochloride] are more than 10000 nM, 0.55 nM, 450 nM and more than 10000 nM.
For `NC/C(=C\F)Cn1ncn(-c2ccc(Br)nc2)c1=O` [Example 25, 2-[(2E)-2-(aminomethyl)-3-fluoroprop-2-en-1-yl]-4-(6-bromopyridin-3-yl)-2,4-dihydro-3H-1,2,4-triazol-3-one hydrochloride] the same measures were more than 100000 nM, 2.4 nM, 25 nM and 2300 nM.
The corresponding values for `Cc1cc(-n2cnn(C/C(=C/F)CN)c2=O)ncc1Br` [Example 34, 2-[(2E)-2-(aminomethyl)-3-fluoroprop-2-en-1-yl]-4-(5-bromo-4-methylpyridin-2-yl)-2,4-dihydro-3H-1,2,4-triazol-3-one hydrochloride] are 6100 nM, 0.6 nM, 13 nM and 363 nM.
In the case of `CC(=O)Nc1nc(Cc2ccc(-n3cnn(C/C(=C/F)CN)c3=O)cc2)cs1` [Example 235, hydrochloride], the IC50 in test [1] (0.5 mM tyramine substrate) is more than 100000 nM; at recombinant human VAP-1, 0.43 nM; in test [2] (recombinant human DAO, 1 mM putrescine substrate, read-out: Inhibitory Activity (IC50, nM) DAO), less than 100 nM; in test [3] (1 mM benzylamine substrate), 2580 nM.
Take `NC/C(=C\F)Cn1ncn(-c2cccc(C3=CCNCC3)c2)c1=O` [Example 48, 2-[(2E)-2-(aminomethyl)-3-fluoroprop-2-en-1-yl]-4-[3-(1,2,3,6-tetrahydropyridin-4-yl)phenyl]-2,4-dihydro-3H-1,2,4-triazol-3-one dihydrochloride]: the IC50 in test [1] (0.5 mM tyramine) was more than 100000 nM; on recombinant human VAP-1 (30 min preincubation at 37° C.) it was 0.56 nM; in test [2], 0.79 nM; in test [3] (1 mM benzylamine), more than 10000 nM.
For `Cc1cc(-c2ccc3cn[nH]c3c2)ncc1-n1cnn(C/C(=C/F)CN)c1=O` [Example 126, 2-[(2E)-2-(aminomethyl)-3-fluoroprop-2-en-1-yl]-4-[6-(1H-indazol-6-yl)-4-methylpyridin-3-yl]-2,4-dihydro-3H-1,2,4-triazol-3-one], the IC50 is more than 100000 nM in test [1] (0.5 mM tyramine), 0.87 nM on recombinant human VAP-1 (30 min preincubation at 37° C.), less than 100 nM in test [2] (setting [4]) and 133 nM in test [3] (1 mM benzylamine).
The corresponding values for `NC/C(=C\F)Cn1ncn(-c2ccc(F)c(F)c2)c1=O` [Example 10, 2-[(2E)-2-(aminomethyl)-3-fluoroprop-2-en-1-yl]-4-(3,4-difluorophenyl)-2,4-dihydro-3H-1,2,4-triazol-3-one hydrochloride] are more than 100000 nM, 2.4 nM, 100 nM and 1610 nM.
For `NC/C(=C/F)Cn1ncn(-c2ccc(F)cc2)c1=O` [Example 5, 2-[(2Z)-2-(aminomethyl)-3-fluoroprop-2-en-1-yl]-4-(4-fluorophenyl)-2,4-dihydro-3H-1,2,4-triazol-3-one] the same measures were 1600 nM, 3.8 nM, 1100 nM and 260 nM.
